A short description of this data set: recombinant UMI read abundance after kanamycin selection (control-corrected) (log10(CPM+1)); higher = more efficient recombination; extreme values may be limits of the assay; sequences stand for … in AGTGCAGAGAAAATCGGCCAGTTTTCTCTGCCTGCAGTCCGCATGCCGTGGGACCCCTTGGGTTCTAACCTGTTGCCTAGATTTATGCAGCGGACTGCCTTTCTCCCAAAGTGATAAACCGG…AGGTTGGTTTCACT; site = the 11-nt donor. The protocol:
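Pooled E. coli donor-specificity screen for the IS621 bridge recombinase. Each library member carries a reprogrammed 11-nt donor and a full-length LE bridge RNA expressed in cis from the natural promoter, with a paired donor-binding loop (8-nt LDG + 4-nt RDG) and a target-binding loop fixed to T5. It is co-electroporated with a T5 target plasmid; recombinase is induced with 0.07 mM IPTG and recombinants are selected on kanamycin. UMIs are counted as CPM, averaged over two biological replicates and corrected by the unselected control. Molecule = full bridge RNA written as DNA, built from the T5 scaffold: LDG = donor specificity nt 1-8, RDG = reverse complement of nt 8-11.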
For the sequence “ACAGTATCATGGACCGGTTTTCCCGGTAATCCGTATTTGCA (site ACAGTGTCTGG)”, the “recombinant UMI read abundance (log10)” value came out at 0. As for “ACAGTATCATGGACCGGTTTTCCCGGTAATCCGTATTTGCA (site ACAGTGTCTTG)”, the figure is 2.4. On to “ACAGTATCATGGACCGGTTTTCCCGGTAATCCGTATTTGCA (site ACAGTGTCTTT)”, for which the “recombinant UMI read abundance (log10)” value came to 0.0151. As to “ACAGTATCATGGACCGGTTTTCCCGGTAATCCGTATTTGCA (site ACAGTTGCTTG)”, the “recombinant UMI read abundance (log10)” value was determined as 0.0085. The same measure for “ACAGTATCATGGACCGGTTTTCCCGGTAATCCGTATTTGCA (site ACAGTTTCTCG)”: 0; for “ACAGTATCATGGACCGGTTTTCCCGGTAATCCGTATTTGCA (site ACAGTTTCTTA)”: 0.0131; for “ACAGTATCATGGACCGGTTTTCCCGGTAATCCGTATTTGCA (site ACAGTTTCTTG)”: 1.23. The same measure for “ACAGTATCATGGACCGGTTTTCCCGGTAATCCGTATTTGCA (site ACATGATCTTG)”: 1.29; for “ACAGTATCATGGACCGGTTTTCCCGGTAATCCGTATTTGCA (site ACATTACCTTG)”: 0.

Regarding “ACAGTATCATGGACCGGTTTTCCCGGTAATCCGTATTTGCA (site ACATTATCTGG)”, the “recombinant UMI read abundance (log10)” value amounted to 0. As to “ACAGTATCATGGACCGGTTTTCCCGGTAATCCGTATTTGCA (site ACATTATCTTG)”, the “recombinant UMI read abundance (log10)” value was found to be 1.22.

With “ACAGTATCATGGACCGGTTTTCCCGGTAATCCGTATTTGCA (site ACATTATCTTT)”, the “recombinant UMI read abundance (log10)” value amounted to 0.0113. The same measure for “ACAGTATCATGGACCGGTTTTCCCGGTAATCCGTATTTGCA (site ACATTGTCTTG)”: 1.03. Regarding “ACAGTATCATGGACCGGTTTTCCCGGTAATCCGTATTTGCA (site ACCATATCTTG)”, the “recombinant UMI read abundance (log10)” value is 1.91. With “ACAGTATCATGGACCGGTTTTCCCGGTAATCCGTATTTGCA (site ACCGAATCTTG)”, the “recombinant UMI read abundance (log10)” value was determined as 0. As for “ACAGTATCATGGACCGGTTTTCCCGGTAATCCGTATTTGCA (site ACCGTAACTTG)”, the figure is 0.0063. For the sequence “ACAGTATCATGGACCGGTTTTCCCGGTAATCCGTATTTGCA (site ACCGTATCTAG)”, the “recombinant UMI read abundance (log10)” value worked out at 0.0104.

As to “ACAGTATCATGGACCGGTTTTCCCGGTAATCCGTATTTGCA (site ACCGTATCTTC)”, the “recombinant UMI read abundance (log10)” value was found to be 0.00762. Take “ACAGTATCATGGACCGGTTTTCCCGGTAATCCGTATTTGCA (site ACCGTATCTTG)”: the “recombinant UMI read abundance (log10)” value stood at 1.82.

Consider “ACAGTATCATGGACCGGTTTTCCCGGTAATCCGTATTTGCA (site ACCGTCTCTTG)”, for which the “recombinant UMI read abundance (log10)” value was found to be 1.39.

“ACAGTATCATGGACCGGTTTTCCCGGTAATCCGTATTTGCA (site ACGCTATCTTG)”: the “recombinant UMI read abundance (log10)” value was 1.16. On to “ACAGTATCATGGACCGGTTTTCCCGGTAATCCGTATTTGCA (site ACGGCATCTTG)”, for which the “recombinant UMI read abundance (log10)” value was 0. Take “ACAGTATCATGGACCGGTTTTCCCGGTAATCCGTATTTGCA (site ACGGTAGCTTG)”: the “recombinant UMI read abundance (log10)” value worked out at 0.0044.

“ACAGTATCATGGACCGGTTTTCCCGGTAATCCGTATTTGCA (site ACGGTATCTCG)”: the “recombinant UMI read abundance (log10)” value turned out to be 0.00452. Consider “ACAGTATCATGGACCGGTTTTCCCGGTAATCCGTATTTGCA (site ACGGTATCTTA)”, for which the “recombinant UMI read abundance (log10)” value amounted to 0.00481. In the case of “ACAGTATCATGGACCGGTTTTCCCGGTAATCCGTATTTGCA (site ACGGTATCTTG)”, the “recombinant UMI read abundance (log10)” value is 0.0156. As for “ACAGTATCATGGACCGGTTTTCCCGGTAATCCGTATTTGCA (site ACGGTTTCTTG)”, the figure is 0.0105; as for “ACAGTATCATGGACCGGTTTTCCCGGTAATCCGTATTTGCA (site ACTGGATCTTG)”, 0; as for “ACAGTATCATGGACCGGTTTTCCCGGTAATCCGTATTTGCA (site ACTGTACCTTG)”, 0. The same measure for “ACAGTATCATGGACCGGTTTTCCCGGTAATCCGTATTTGCA (site ACTGTATCTGG)”: 0.00893; for “ACAGTATCATGGACCGGTTTTCCCGGTAATCCGTATTTGCA (site ACTGTATCTTG)”: 2.31; for “ACAGTATCATGGACCGGTTTTCCCGGTAATCCGTATTTGCA (site ACTGTATCTTT)”: 0.00405. The same measure for “ACAGTATCATGGACCGGTTTTCCCGGTAATCCGTATTTGCA (site ACTGTGTCTTG)”: 1.26. As to “ACAGTATCATGGACCGGTTTTCCCGGTAATCCGTATTTGCA (site ACTTTATCTTG)”, the “recombinant UMI read abundance (log10)” value amounted to 1.44. The same measure for “ACAGTATCATGGACCGGTTTTCCCGGTAATCCGTATTTGCA (site AGAGGATCTTG)”: 0.0328; for “ACAGTATCATGGACCGGTTTTCCCGGTAATCCGTATTTGCA (site AGAGTACCTTG)”: 0; for “ACAGTATCATGGACCGGTTTTCCCGGTAATCCGTATTTGCA (site AGAGTATCTGG)”: 0.0344. With “ACAGTATCATGGACCGGTTTTCCCGGTAATCCGTATTTGCA (site AGAGTATCTTG)”, the “recombinant UMI read abundance (log10)” value was 2.46. In the case of “ACAGTATCATGGACCGGTTTTCCCGGTAATCCGTATTTGCA (site AGAGTATCTTT)”, the “recombinant UMI read abundance (log10)” value was 0.0042. The same measure for “ACAGTATCATGGACCGGTTTTCCCGGTAATCCGTATTTGCA (site AGAGTGTCTTG)”: 1.6; for “ACAGTATCATGGACCGGTTTTCCCGGTAATCCGTATTTGCA (site AGATTATCTTG)”: 1.58. As for “ACAGTATCATGGACCGGTTTTCCCGGTAATCCGTATTTGCA (site AGTGTATCTTG)”, the figure is 1.45; as for “ACAGTATCATGGACCGGTTTTCCCGGTAATCCGTATTTGCA (site ATACTATCTTG)”, 1.12; as for “ACAGTATCATGGACCGGTTTTCCCGGTAATCCGTATTTGCA (site ATAGCATCTTG)”, 1.83. As to “ACAGTATCATGGACCGGTTTTCCCGGTAATCCGTATTTGCA (site ATAGTAGCTTG)”, the “recombinant UMI read abundance (log10)” value was determined as 0.354. On to “ACAGTATCATGGACCGGTTTTCCCGGTAATCCGTATTTGCA (site ATAGTATCTCG)”, for which the “recombinant UMI read abundance (log10)” value was determined as 0.0911.

Regarding “ACAGTATCATGGACCGGTTTTCCCGGTAATCCGTATTTGCA (site ATAGTATCTTA)”, the “recombinant UMI read abundance (log10)” value worked out at 0. As for “ACAGTATCATGGACCGGTTTTCCCGGTAATCCGTATTTGCA (site ATAGTATCTTG)”, the figure is 2.04; as for “ACAGTATCATGGACCGGTTTTCCCGGTAATCCGTATTTGCA (site ATAGTTTCTTG)”, 0.0207. As to “ACAGTATCATGGACCGGTTTTCCCGGTAATCCGTATTTGCA (site ATGGTATCTTG)”, the “recombinant UMI read abundance (log10)” value stood at 1.7.

In the case of “ACAGTATCATGGACCGGTTTTCCCGGTAATCCGTATTTGCA (site CCAGGATCTTG)”, the “recombinant UMI read abundance (log10)” value worked out at 0.811. Turning to “ACAGTATCATGGACCGGTTTTCCCGGTAATCCGTATTTGCA (site CCAGTACCTTG)”, the “recombinant UMI read abundance (log10)” value is 0.0123. For “ACAGTATCATGGACCGGTTTTCCCGGTAATCCGTATTTGCA (site CCAGTATCTGG)”, the “recombinant UMI read abundance (log10)” value came to 0.613. As for “ACAGTATCATGGACCGGTTTTCCCGGTAATCCGTATTTGCA (site CCAGTATCTTG)”, the figure is 2.71; as for “ACAGTATCATGGACCGGTTTTCCCGGTAATCCGTATTTGCA (site CCAGTATCTTT)”, 0.00394; as for “ACAGTATCATGGACCGGTTTTCCCGGTAATCCGTATTTGCA (site CCAGTGTCTTG)”, 1.8.

Take “ACAGTATCATGGACCGGTTTTCCCGGTAATCCGTATTTGCA (site CCATTATCTTG)”: the “recombinant UMI read abundance (log10)” value was 2.31. The same measure for “ACAGTATCATGGACCGGTTTTCCCGGTAATCCGTATTTGCA (site CCTGTATCTTG)”: 2.37; for “ACAGTATCATGGACCGGTTTTCCCGGTAATCCGTATTTGCA (site CGAGTATCTTG)”: 1.36. The same measure for “ACAGTATCATGGACCGGTTTTCCCGGTAATCCGTATTTGCA (site GAAGTATCTTG)”: 2.82; for “ACAGTATCATGGACCGGTTTTCCCGGTAATCCGTATTTGCA (site GCAATATCTTG)”: 1.63; for “ACAGTATCATGGACCGGTTTTCCCGGTAATCCGTATTTGCA (site GCAGAATCTTG)”: 1.47. As to “ACAGTATCATGGACCGGTTTTCCCGGTAATCCGTATTTGCA (site GCAGTAACTTG)”, the “recombinant UMI read abundance (log10)” value came to 0.

For the sequence “ACAGTATCATGGACCGGTTTTCCCGGTAATCCGTATTTGCA (site GCAGTATCTAG)”, the “recombinant UMI read abundance (log10)” value is 0.0509.

With “ACAGTATCATGGACCGGTTTTCCCGGTAATCCGTATTTGCA (site GCAGTATCTTC)”, the “recombinant UMI read abundance (log10)” value was found to be 0.00944.

The values are drawn from the supplement of paper PMC11208160.
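Note: IS621 bridge recombinase in Escherichia coli cells against a fixed T5 target plasmid.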
